The text below walks through data of patent publication US7674787B2, “Conformationally constrained Smac mimetics and the uses thereof” (The Regents of the University of Michigan, priority 2004, dated 2010).

Experiment [1] deals with PC-3 cells. The experiment is described as follows: Apoptosis by Annexin V-FITC staining in PC-3 cells. It counts as cell-based, human. An excerpt: SH-97, a peptido-mimetic in which the side chain of alanine has been replaced with an ethyl group and the isoleucine has been replaced with a diphenylmethyl group, was used to test the basic premise. Of note, SH-97 still has two natural amino acids (valine and proline) and one natural peptide bond. […] The experiment used PC-3 cells which express high levels of XIAP and cIAP-1/2 proteins and cisplatin (CDDP) as the chemotherapeutic drug. CDDP is a DNA damaging agent and can effectively induce apoptosis in PC-3 cells and is also a clinically used chemotherapeutic drug for prostate cancer.
PC-3 cells were treated with CDDP, Smac peptides and mimetics alone or in combination for 42 hours and apoptosis was analyzed by Annexin V-FITC staining. […] Combination of 25 μM CDDP and 10 μM or 25 μM SH-97 induced 29.3%±1.9% and 35.8%±0.4% apoptosis over control cells, respectively (FIG. 18A).
Similar experiments were performed with SH-102 (Table 5). PC-3 cells in 6-well plates were treated with SH-102 and CDDP, alone or in combination, for 42 hours. Cells were collected and stained with Annexin V-FITC and propidium iodide. The fluorescence of Annexin V-FITC and propidium iodide of individual cells was analyzed by flow cytometry. […] Combination of 25 μM CDDP and 10 μM SH-102 induced 32% apoptosis over control cells (FIG. 19).
The same experiment was performed using TAXOTERE (docetaxel), another cancer chemotherapeutic drug. PC-3 cells in 6-well plates were treated with SH-102 and TAXOTERE, alone or in combination, for 42 hours. Cells were collected and stained with Annexin V-FITC and propidium iodide. The fluorescence of Annexin V-FITC and propidium iodide of individual cells was analyzed by flow cytometry. […] Combination of 10 μM TAXOTERE and 10 μM SH-102 induced about 18% apoptosis over control cells (FIG. 21).

The subject of experiment [2] is MDA-231 cells. The experiment is described as follows: Apoptosis by Annexin V-FITC/propidium iodide in MDA-231 cells. The class given is cell-based, human. As to the method: Similar experiments were performed using the breast cancer cell line MDA-231. MDA-231 cells in 6-well plates were treated with SH-102 and CDDP, alone or in combination, for 42 hours. Cells were collected and stained with Annexin V-FITC and propidium iodide. The fluorescence of Annexin V-FITC and propidium iodide of individual cells was analyzed by flow cytometry. 25 μM and 50 μM CDDP induced about 25% and 42% of MDA-231 cells to undergo apoptosis as compared to control cells, respectively (FIG. 22). […] Combination of 25 and 50 μM CDDP and 10 μM SH-102 induced about 35% and 75% apoptosis over control cells, respectively (FIG. 22).

The test system of experiment [3] is MDA-435, MDA-468, and T47D cells. The experiment is described as follows: Cell growth inhibition, WST-8, breast cancer cell lines. The class given is cell-based, human. Particulars: Homo sapiens, 120 h, 5 days, each of the three cell lines. As to the method:
To test the effect of Smac mimetics by themselves in inhibition of cell growth in human cancer cells, SH-102 was administered to three different breast cancer cell lines. MDA-435, MDA-468, and T47D cells were seeded in 96-well plates with increasing concentrations of SH-102, Smac8, or Smac8-C. The cells were then incubated at 37° C. with 5% CO2 for 5 days, followed by detection of cell viability with WST-8 (10% Dojindo solution in IMEM with 10% FCS). OD values at 450 nm with reference at 650 nm were read approximately 3 hours later. Untreated cells were used as 100% growth. […]. […] (FIGS. 26A-26C).
On the technique in general: Formazan colour is commonly taken as a measure of viable cells.

In experiment [4] the test system is Jurkat-XIAP cells. The experiment can be described thus: Sub-G1 apoptosis in Jurkat cells overexpressing XIAP.
Experiment [5] deals with Jurkat-Bir3 cells. The experiment is described as follows: Sub-G1 apoptosis in Jurkat cells expressing XIAP-Bir3.
In experiment [6] the test system is BT-549, MDA-MB-231 (subclone 2LMP), MDA-MB-231 (ATCC) and PC-3 cells. The experiment can be described thus: Cell growth inhibition, WST-8, cancer cell lines. It counts as cell-based, human. The method, then:
(§1) To test the effect of [6.3.0] Smac mimetics in inhibition of cell growth in human cancer cells, compounds were administered to several different cancer cell lines. BT-549, MDA-MB-231 (subclone 2LMP), and MDA-MB-231 (ATCC) human breast cancer cells and PC-3 human prostate cancer cells were seeded in 96-well plates with increasing concentrations of the compounds. To assay for the selectivity of the compounds for cancer cells, normal prostate epithelial cells were also tested. The cells were then incubated at 37° C. with 5% CO2 for 5 days, followed by detection of cell viability with WST-8. Untreated cells were used as 100% growth. The compounds tested were SH-109, SH-122 and SH-123 (Table 6).

Experiment [7] has as its system normal prostate epithelial cells. The experiment is described as follows: Cell growth inhibition, WST-8, normal cells. It counts as cell-based. Conditions: 5 days. The method, then:
as §1

Experiment [8] deals with MDA-MB-231 (subclone 2LMP) breast cancer cells. The experiment can be described thus: Cell growth inhibition in combination with TRAIL, WST-8. It counts as cell-based, human. Conditions: 4 days. The method, then: To test the ability of SH-122 to enhance the cell growth inhibitory activity of TRAIL, MDA-MB-231 (subclone 2LMP) breast cancer cells were seeded in 96-well plates with various concentrations of TRAIL in the presence of increasing amounts of SH-122. The cells were then incubated at 37° C. with 5% CO2 for 4 days, followed by detection of cell viability with WST-8.

Experiment [9] addresses XIAP BIR3 (Homo sapiens, UniProt P98170). The experiment is described as follows: biochemical.
The test system of experiment [10] is Jurkat-Vec cells. The experiment can be described thus: Sub-G1 apoptosis in Jurkat cells with control vector. It counts as cell-based, human. Conditions: 10 μM etoposide alone, 15 hours.
Experimental: Data were analyzed to calculate the percentage of sub-G1 cells (apoptotic cells) using CellQuest software (Becton Dickinson).
Experiment [11] deals with XIAP (Homo sapiens, UniProt P98170). Particulars: background statement; cited from earlier work.
XIAP, sequence (P98170 whole entry): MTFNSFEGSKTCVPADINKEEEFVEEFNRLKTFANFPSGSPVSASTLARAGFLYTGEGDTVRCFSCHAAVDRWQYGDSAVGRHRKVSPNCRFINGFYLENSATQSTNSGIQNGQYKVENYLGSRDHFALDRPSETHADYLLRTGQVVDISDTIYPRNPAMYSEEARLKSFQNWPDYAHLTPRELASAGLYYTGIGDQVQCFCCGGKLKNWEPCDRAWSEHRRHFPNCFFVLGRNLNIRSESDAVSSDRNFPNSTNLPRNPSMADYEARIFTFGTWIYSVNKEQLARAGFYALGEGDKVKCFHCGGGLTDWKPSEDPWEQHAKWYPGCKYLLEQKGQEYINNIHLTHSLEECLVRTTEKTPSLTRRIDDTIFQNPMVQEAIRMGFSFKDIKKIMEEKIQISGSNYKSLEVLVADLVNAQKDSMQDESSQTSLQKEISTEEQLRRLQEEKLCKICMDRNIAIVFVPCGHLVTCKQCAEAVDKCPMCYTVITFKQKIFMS

Broadly, the IC50 is the concentration that inhibits the measured activity by half. As a reminder, the Ki is a dissociation constant, usually derived from enzyme kinetics or from competition with a known ligand. A high value points to a looser hold on the target. What is called Kd is the constant that tells how readily two partners part at equilibrium.

XIAP BIR3, sequence (P98170 241-356): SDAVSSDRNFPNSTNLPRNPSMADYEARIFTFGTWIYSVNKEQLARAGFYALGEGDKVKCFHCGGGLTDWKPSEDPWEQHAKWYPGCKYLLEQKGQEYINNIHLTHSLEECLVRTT

On to `CC[C@H](N)C(=O)N[C@H]1CCC[C@H]2CC[C@@H](C(=O)NC(c3ccccc3)c3ccccc3)N2C1=O` [Compound 34], for which the “apoptosis over control cells” value in [1] (10 μM TAXOTERE + 10 μM SH-102, 42 hours) is on record as “about 18%”; in [1] (25 μM CDDP + 10 μM compound, 42 hours) it was 32%; in experiment [2] (25 μM CDDP + 10 μM SH-102, 42 hours), “about 35%”; in experiment [2] (50 μM CDDP + 10 μM SH-102, 42 hours), approximately 75%. For the same molecule, in experiment [1] (compound alone up to 100 μM, 42 hours), the “apoptosis compared to untreated cancer cells” value is “did not induce significantly more apoptosis”. In experiment [2] (10 μM SH-102 compared with 100 μM pSmac8-C), the “ability to sensitize cells to CDDP” value was “as great as that of 100 μM pSmac8-C”. In addition, in [3], the IC50 lay within 30 to 70 µM. Moreover, the “effectiveness in overcoming protective effect of XIAP” value in experiment [4] (10 μM SH-102 compared with 50 μM Smac8-C) is reported as “at least as effective as 50 μM Smac8-C”. Further, the “apoptosis (sub-G1)” value in [4] (10 μM SH-102 in combination with etoposide, 15 hours) is “about 15%”. For the same molecule, the results for the apoptosis result in experiment [5] (etoposide + 10 μM SH-102) and in [5] (etoposide + 20 μM SH-102) were “about 25%” and approximately 30%, respectively.
On to `CC[C@H](NC)C(=O)N[C@H]1CCCC[C@H]2CC[C@@H](C(=O)NC(c3ccccc3)c3ccccc3)N2C1=O` [SH-122], for which the “cell growth inhibition (in words)” value in experiment [6] (5 days, WST-8, each of the cancer cell lines) is on record as “inhibited the cell growth”; in experiment [7] it was “no cell growth inhibition effect”. In experiment [6] (among SH-109, SH-122, SH-123, each cell line), the “rank of potency in cell growth inhibition” value is on record as “most potent”. Moreover, the “decrease of the IC50 of TRAIL” value in experiment [8] (250 nM SH-122 with TRAIL) is “approximately ten-fold”. This molecule yielded a Ki in experiment [9] of 30 nM.
As to `COc1cc([C@@H]2c3cc4c(cc3[C@@H](O[C@@H]3O[C@@H]5CO[C@@H](C)O[C@H]5[C@H](O)[C@H]3O)[C@H]3COC(=O)[C@H]23)OCO4)cc(OC)c1O` [etoposide, reference compound], the “apoptotic cells (sub-G1)” value is reported as “about 50%” in experiment [10] and “about 10%” in experiment [4] (10 μM etoposide alone, 15 hours). Besides, the apoptosis result in [5] (20 μM etoposide alone) is given as “about 18%”.

B1: mature Smac protein: mature Smac protein, endogenous inhibitor of XIAP (protein, UniProt Q9NR28 22-239, looked up)
Diablo IAP-binding …: LCVPVVANFKKRCFSELIRPWHKTVTIGFGVTLCAVPIAQKSEPHSLSSEALMRRAVSLVTDSTSTFLSQTTYALIEAITEYTKAVYTLTSLYRQYTSLLGKMNSEEEDEVWQVIIGARAEMTSKHQEYLKLETTWMTAVGLSEMAAEAAYQTGADQASITARNHIQLVKLQVEEVHQLSRKAETKLAEAQIEELRQKTQEEGEERAESEQEAYLRED
Turning to B1, the equilibrium dissociation constant (Kd) in [11] was 420 nM.

B2: TRAIL: tumor necrosis factor-related apoptosis-inducing ligand (protein, UniProt P50591 1-281, looked up)
Tumor necrosis factor ligand …: MAMMEVQGGPSLGQTCVLIVIFTVLLQSLCVAVTYVYFTNELKQMQDKYSKSGIACFLKEDDSYWDPNDEESMNSPCWQVKWQLRQLVRKMILRTSEETISTVQEKQQNISPLVRERGPQRVAAHITGTRGRSNTLSSPNSKNEKALGRKINSWESSRSGHSFLSNLHLRNGELVIHEKGFYYIYSQTYFRFQEEIKENTKNDKQMVQYIYKYTSYPDPILLMKSARNSCWSKDAEYGLYSIYQGGIFELKENDRIFVSVTNEHLIDMDHEASFFGAFLVG
On to B2, for which the “cell growth inhibition (in words)” value in [8] (TRAIL by itself) is reported as “inhibited the growth of the cells in a dose dependent fashion”.
